Laboratory results taken from the NIST ThermoML archive (doi:10.1016/j.jct.2013.06.020).

Test: mn = molality of the nth substance listed, in mol/kg
Conditions: 298.15 K, 101 kPa, Liquid; for speed of sound: Sing-around technique in a fixed-path interferometer; for mass density: Vibrating tube method

CCOC(=O)C(C)O (stereo not drawn) [DL-ethyl lactate] + O
Conditions | mass density [kg/m3] | speed of sound [m/s]
m1 = 0.0348 | 997.552 | 1498.7
m1 = 0.0378 | 997.579 | 1499
m1 = 0.0445 | 997.674 | 1499.6
m1 = 0.0513 | 997.748 | 1500
m1 = 0.063 | 997.869 | 1500.5
m1 = 0.0719 | 997.967 | 1501.1
m1 = 0.0895 | 998.152 | 1502.2
m1 = 0.1026 | 998.294 | 1503
m1 = 0.1207 | 998.489 | 1504
m1 = 0.1439 | 998.732 | 1505.6
m1 = 0.1856 | 999.184 | 1508.6
m1 = 0.2723 | 1000.1 | 1514
m1 = 0.5249 | 1002.7 | 1526
m1 = 0.6911 | 1004.35 | 1533.5
m1 = 0.8467 | 1005.83 | 1539.6
m1 = 1.02 | 1007.41 | 1545.3
m1 = 1.188 | 1008.87 | 1551.3
m1 = 1.359 | 1010.23 | 1556.1
m1 = 1.683 | 1012.78 | 1563.9
m1 = 2.058 | 1015.37 | 1572.5
m1 = 2.41 | 1017.49 | 1579
m1 = 2.725 | 1019.27 | 1585.2
m1 = 3.226 | 1021.64 | 1593.3
m1 = 3.731 | 1023.63 | 1601.1
m1 = 4.237 | 1025.37 | 1607.5

CCCCOC(=O)C(C)O (stereo unspecified) [butyl 2-hydroxypropanoate] + O
Conditions | mass density [kg/m3] | speed of sound [m/s]
m1 = 0.0219 | 997.335 | 1498.8
m1 = 0.0262 | 997.377 | 1499.4
m1 = 0.0328 | 997.422 | 1499.9
m1 = 0.0399 | 997.472 | 1500.3
m1 = 0.0413 | 997.482 | 1500.5
m1 = 0.0444 | 997.503 | 1500.8
m1 = 0.0632 | 997.633 | 1502.3
m1 = 0.0659 | 997.652 | 1502.6
m1 = 0.0775 | 997.733 | 1503.7
m1 = 0.0915 | 997.826 | 1504.9
m1 = 0.1058 | 997.928 | 1506.1
m1 = 0.1167 | 998.001 | 1507
m1 = 0.1331 | 998.116 | 1508.4
m1 = 0.1551 | 998.265 | 1510.2
m1 = 0.1798 | 998.437 | 1512.2
m1 = 0.1979 | 998.576 | 1514
m1 = 0.2171 | 998.689 | 1515.5
m1 = 0.235 | 998.813 | 1516.7
m1 = 0.2647 | 999.004 | 1518.4
m1 = 0.2785 | 999.098 | 1519.4

CCCCOC(=O)CCC(C)=O [butyl levulinate] + O
Conditions | mass density [kg/m3] | speed of sound [m/s]
m1 = 0.0029 | 997.066 | 1497.3
m1 = 0.0037 | 997.071 | 1497.5
m1 = 0.005 | 997.078 | 1497.6
m1 = 0.0055 | 997.08 | 1497.6
m1 = 0.0059 | 997.081 | 1497.7
m1 = 0.0074 | 997.088 | 1497.9
m1 = 0.0083 | 997.093 | 1497.9
m1 = 0.0088 | 997.096 | 1497.9
m1 = 0.011 | 997.107 | 1498.2
m1 = 0.0128 | 997.114 | 1498.4
m1 = 0.0135 | 997.123 | 1498.5
m1 = 0.0142 | 997.124 | 1498.5
m1 = 0.0208 | 997.158 | 1499.1
m1 = 0.0219 | 997.163 | 1499.4
m1 = 0.0257 | 997.183 | 1499.7
m1 = 0.0303 | 997.197 | 1500
m1 = 0.0312 | 997.209 | 1500.1
m1 = 0.0357 | 997.23 | 1500.6
m1 = 0.0466 | 997.273 | 1501.4
m1 = 0.0522 | 997.303 | 1501.8
m1 = 0.0625 | 997.333 | 1502.5

CCOC(=O)CCC(C)=O [ethyl levulinate] + O
Conditions | mass density [kg/m3] | speed of sound [m/s]
m1 = 0.0358 | 997.518 | 1499.2
m1 = 0.0404 | 997.561 | 1499.6
m1 = 0.0431 | 997.587 | 1499.8
m1 = 0.0492 | 997.643 | 1500.2
m1 = 0.0555 | 997.699 | 1500.7
m1 = 0.0696 | 997.825 | 1501.6
m1 = 0.0752 | 997.876 | 1502
m1 = 0.0921 | 998.027 | 1503.1
m1 = 0.1048 | 998.143 | 1504
m1 = 0.148 | 998.527 | 1507.1
m1 = 0.2329 | 999.277 | 1512.1
m1 = 0.2893 | 999.76 | 1515.5
m1 = 0.3426 | 1000.21 | 1518.5
m1 = 0.4292 | 1000.93 | 1523.1
m1 = 0.4826 | 1001.36 | 1525.7
m1 = 0.5834 | 1002.14 | 1530.3
m1 = 0.7128 | 1003.11 | 1535.5
m1 = 0.8299 | 1003.94 | 1539.5
m1 = 1.037 | 1005.27 | 1545

COC(=O)C(C)O (stereo unspecified) [methyl 2-hydroxypropanoate] + O
Conditions | mass density [kg/m3] | speed of sound [m/s]
m1 = 0.0487 | 997.862 | 1499
m1 = 0.0568 | 997.968 | 1499.5
m1 = 0.0707 | 998.157 | 1500.4
m1 = 0.0956 | 998.501 | 1501.2
m1 = 0.1039 | 998.614 | 1501.6
m1 = 0.1117 | 998.722 | 1502
m1 = 0.1338 | 999.035 | 1503.1
m1 = 0.1539 | 999.294 | 1504
m1 = 0.223 | 1000.24 | 1507.8
m1 = 0.3212 | 1001.55 | 1511.7
m1 = 0.484 | 1003.64 | 1518.2
m1 = 0.7855 | 1007.52 | 1529
m1 = 0.9699 | 1009.78 | 1535.3
m1 = 1.168 | 1012.12 | 1542.1
m1 = 1.377 | 1014.5 | 1548.7
m1 = 1.56 | 1016.48 | 1554.2
m1 = 1.776 | 1018.7 | 1561.9
m1 = 1.938 | 1020.4 | 1566.9
m1 = 2.237 | 1023.27 | 1575.8
m1 = 2.632 | 1026.82 | 1588.2
m1 = 2.941 | 1029.45 | 1597
m1 = 3.322 | 1032.46 | 1606.5
m1 = 3.906 | 1036.62 | 1617.2
